Measured values taken from US8362081B2, “Methods for treating hemorrhagic conditions” (priority 2009, dated 2013).

How the values were obtained:
liver wound bleeding = experiment: Rabbit liver hemorrhage: bleeding time and extent; type: in vivo; settings: 0.5 KU/kg injected via ear vein at wounding, vs physiological saline control
Protocol: Healthy rabbits having a weight of 2-2.5 kg were distributed randomly into four groups consisting of 6 rabbits per group. The rabbits in each group were fed only water for the twelve-hour period prior to operation. Each rabbit was anaesthetized by receiving an injection of sodium pentobarbital (30 mg/kg) in the abdominal cavity. An incision was made in the upper abdominal cavity of each animal and a piece of the liver was removed leaving a wound 2 cm in length, 1 cm in width and 0.5 cm in height.
At the time of wounding, the animals received by injection (2 ml/kg) via an ear vein one of following four compositions suspended in physiological saline: control, 0.5 KU/kg Reptilase, 25 mg/kg Sodium Dencichine, or 1 mg/kg solid dispersion composition of Dencichine prepared according to Example 1. Following the injection, the bleeding time and extent was recorded for each rabbit until the liver wound stopped bleeding.

acute gastric bleeding = experiment: Gastrorrhagia of rats: acute gastric bleeding time and extent; type: in vivo, Sprague-Dawley rat; settings: rat gastric wound; 0.5 KU/kg via femoral vein 30 min before wounding; vs physiological saline control
Protocol: Healthy Sprague-Dawley rats having a weight of 180-220 g were distributed randomly into four groups consisting of 10 rats per group. The rats in each group were fed only water for the twelve-hour period prior to operation. Each rat was anaesthetized by receiving an injection of sodium pentobarbital (30 mg/kg) in the abdominal cavity. An incision was made in the upper abdominal cavity of each animal and the stomach exposed to air and minced along the greater curvature. The stomach was vacated for each animal and cleaned with sterile cotton swab.
The animals received by injection (1 ml/100 g) via a femoral vein one of following four compositions suspended in physiological saline: control, 0.5 KU/kg Reptilase, 25 mg/kg Sodium Dencichine, or 1 mg/kg solid dispersion composition of Dencichine prepared according to Example 1. Thirty minutes following the injection, one piece of the gastric body from each animal was excised using biopsy forceps to establish acute gastric bleeding. The bleeding time and extent was recorded for each rat until the wound stopped bleeding.

tail wound bleeding = experiment: Tail bleeding time of mouse; type: in vivo, ICR mouse; settings: mouse tail cut; 0.5 KU/kg via tail vein 30 min before cut; vs physiological saline control
Protocol: Healthy male ICR mice having a weight of 18-22 g were distributed randomly into […] consisting of 10 mice per group. The animals received by injection (0.1 ml/10 g) via the tail vein one of following four compositions suspended in physiological saline: control, 0.5 KU/kg Reptilase, 25 mg/kg Sodium Dencichine, or 1 mg/kg solid dispersion composition of Dencichine prepared according to Example 1. Thirty minutes following injection the tail of each mouse was cut 0.5 cm from the tail tip. The cut tail wound bleeding of each mouse was monitored by scrubbing the tail tip with a filter paper at timed intervals (30 s, 60 s, and every 10 s thereafter) until blood could not be seen on the filter paper.

Reptilase: Haemostatic comparator injected at 0.5 KU/kg
significantly shortened: time and extent of the wound bleeding (liver wound bleeding) | time and extent of the wound bleeding (acute gastric bleeding) | time required to stop the tail wound bleeding (tail wound bleeding)
